Read-outs that look alike come from different tables or passages of the source.
Assays:
C. elegans [1] = test: Rescue of C. elegans Δ12 FAT RNAi feeding phenotype by fatty acid methyl esters; format: in vivo; settings: 3 mM added to the NGM media
Source text: RNAi by feeding: C. elegans can be grown on lawns of E. coli genetically engineered to produce double stranded RNA (dsRNA) designed to inhibit Δ12 FAT expression. Briefly, E. coli were transformed with a genomic fragment of a portion of the C. elegans Δ12 FAT gene sequence, specifically a fragment 651 nucleotides long, containing the entire first exon and terminating just before the conserved intron splice junction between the first exon and first intron. This construct encodes approximately the first 217 amino acids of the C. clegans Δ12 FAT gene. The 651 nucleotide genomic fragment was cloned into an E. coli expression vector between opposing T7 polymerase promoters. The clone was then transformed into a strain of E. coli that carries an IPTG-inducible T7 polymerase. As a control, E. coli was transformed with a gene encoding the Green Fluorescent Protein (GFP).
Feeding RNAi was initiated from C. elegans eggs or from C. elegans L4s.
The C. elegans Δ12 fatty acid desaturase (Fat2 protein) converts the mono-unsaturated oleic acid to the di-unsaturated fatty acid linoleic acid. The […] FAT RNAi prevents expression of the Δ12 fatty acid desaturase, which is predicted to cause a decrease in levels of linoleic acid in the nematode, leading to arrested development and death.

C. elegans [2] = test: Inhibitor studies: C. elegans cultures on NGM plates containing fatty acid methyl esters; format: in vivo; settings: for Lifecycle impairments of C. elegans cultures: methyl ester on NGM plates with OP50 E. coli
Source text: Vernolic acid and ricinoleic acid are naturally occurring plant-produced fatty acid homologs that we predict to be specific inhibitors of Δ12 FAT enzymes. The addition of these compounds to living cultures of C. elegans is expected to mimic the effects of the Δ12 FAT RNAi experiments since, in each case, the phenotype observed should derive from the inhibition of the nematode Δ12 FAT. To explore this possibility, C. elegans cultures were started from eggs on NGM plates containing their E. coli food source and one of either 3 mM ricinolcic acid methyl ester or 3 mM vernolic acid methyl ester. Total eggs layed and hatch-rates of F1 and F2 individuals were followed and compared to nematode cultures grown in the presence of control fatty acids oleic acid methyl ester and linoleic acid methyl ester. C. elegans L4 larvae were added to NGM plates containing OP50 E. coli and one of the following methyl esters: oleic acid, linolcic acid, ricinoleic acid, vernolic acid or none. C. elegans L4 larvae growing on plates containing ricinoleic acid (FIG. 11) or vernolic acid (FIG. 12) methyl esters developed to mature adults more slowly than those on control plates containing oleic acid (FIG. 9) or linoleic acid (FIG. 10) and produced very few embryos (eggs).

plants [3] = settings: in vivo
[4] = tested on: Δ9 fatty acid desaturases; settings: cited from earlier work
[5] = tested on: everted hamster jejunal and ileal segments; settings: cited from earlier work
[6] = tested on: isolated intestinal epithelial cells; settings: cited from earlier work
plants [7] = test: Toxicity to plants (phytotoxicity); settings: at least some plants
[8] = 3 mM methyl ester on NGM plates with OP50 E. coli

## CCCCCCCC/C=C\CCCCCCCC(=O)OC [oleic acid methyl ester, reference compound]
C. elegans [1]
  Rescue of the Δ12 FAT RNAi feeding phenotype: does not rescue
C. elegans [2]
  Lifecycle impairments of C. elegans cultures: no dramatic lifecycle impairments

## CCCCC/C=C\C/C=C\CCCCCCCC(=O)OC [linoleic acid methyl ester, reference compound]
C. elegans [1]
  Rescue of the Δ12 FAT RNAi feeding phenotype: partial rescue
C. elegans [2]
  Lifecycle impairments of C. elegans cultures: no dramatic lifecycle impairments

## CCCCCC#CC/C=C\CCCCCCCC(=O)OC [crepenynic acid methyl ester]
Plants [3]
  Toxicity to plants: do not appear to be toxic (or are very much less toxic)

## CCCCCCCCC1=C(CCCCCCCC(=O)O)C1 [Sterculic acid]
[4]
  Inhibition of Δ9 fatty acid desaturases: potent inhibitor

## CCCCCC[C@@H](O)C/C=C\CCCCCCCC(=O)O [Ricinoleic acid, reference compound]
[5]
  Effect on water and electrolyte absorption: inhibitory effect
[6]
  Cytotoxicity: cytotoxic

## CCCCCC[C@@H](O)C/C=C\CCCCCCCC(=O)OC [ricinoleic acid methyl ester]
C. elegans [2]; [8]
  Embryos (eggs) produced: very few
  Phenotype of young larvae from embryos that hatched: severe arrested phenotypes and did not develop to adults
C. elegans [2]; 3 mM methyl ester on NGM plates with OP50 E. coli, compared with oleic or linoleic acid control plates
  Development of L4 larvae to mature adults: more slowly
C. elegans [2]; methyl esters of fatty acid analogs
  Nematicidal activity: nematicidal
[5]
  Effect on water and electrolyte absorption: ineffective
Plants [7]
  Toxicity to plants: do not appear to be toxic (or are very much less toxic)

## CCCCCCCCC1=C(CCCCCCC(=O)O)C1 [malvalate]
[4]
  Inhibition of Δ9 fatty acid desaturases: equally inhibitory

## CCCCCC[C@@H](O)C/C=C/CCCCCCCC(=O)OC [ricinelaidic acid methyl ester]
Plants [7]
  Toxicity to plants: do not appear to be toxic (or are very much less toxic)

From patent US7666642B2, “Nematode fatty acid desaturase-like sequences” (Divergence, Inc., priority 2001, dated 2010)
